18 compounds from patent publication US9834558B2, “Substituted bridged urea analogs as sirtuin modulators” (GLAXOSMITHKLINE LLC, priority 2013, dated 2017) can be followed below.

Structures can show the parent of a compound that is named as a salt. Where two headings read alike, the source gives them in different places. Where only a bound is given, the exact number is not on record here.

The test addresses T1, SIRT1 (Homo sapiens, UniProt Q96EB6).
T1 sequence (Q96EB6 1-747): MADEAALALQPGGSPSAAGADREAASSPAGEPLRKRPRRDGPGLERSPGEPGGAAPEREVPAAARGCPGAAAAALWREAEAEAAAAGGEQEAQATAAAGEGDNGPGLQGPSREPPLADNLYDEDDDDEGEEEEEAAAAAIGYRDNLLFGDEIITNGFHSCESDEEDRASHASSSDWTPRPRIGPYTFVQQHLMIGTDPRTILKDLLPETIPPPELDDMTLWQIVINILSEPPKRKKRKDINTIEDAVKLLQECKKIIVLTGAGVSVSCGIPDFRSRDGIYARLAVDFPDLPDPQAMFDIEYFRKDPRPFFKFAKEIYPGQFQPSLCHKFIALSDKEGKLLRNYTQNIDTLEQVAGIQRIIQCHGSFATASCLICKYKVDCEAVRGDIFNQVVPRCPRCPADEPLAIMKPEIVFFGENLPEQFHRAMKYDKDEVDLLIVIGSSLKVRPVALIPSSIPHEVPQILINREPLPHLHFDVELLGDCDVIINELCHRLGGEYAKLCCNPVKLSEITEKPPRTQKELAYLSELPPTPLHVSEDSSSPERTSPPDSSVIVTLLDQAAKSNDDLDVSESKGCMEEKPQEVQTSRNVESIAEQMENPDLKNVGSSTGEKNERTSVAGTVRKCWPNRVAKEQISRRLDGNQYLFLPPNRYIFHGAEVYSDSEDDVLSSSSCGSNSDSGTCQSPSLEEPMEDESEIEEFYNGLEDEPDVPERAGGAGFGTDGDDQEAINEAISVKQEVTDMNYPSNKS
The test is described as follows: Trp mass spectrometry assay of SIRT1 activation. The format is biochemical. The following applies: for TRP Activity (EC1.5): EC1.5 = concentration that results in 150% activation of SIRT1; for Emax: read-out: TRP MAX RESP (percent maximum fold activation). From the text: Mass spectrometry based assays were used to identify modulators of SIRT1 activity. […] The peptide was labeled with the fluorophore STMR (excitation 540 nm/emission 580 nm) at the C-terminus. The sequence of the peptide substrate was based on p53 with several modifications. In addition, the methionine residue naturally present in the sequence was replaced with the norleucine because the methionine may be susceptible to oxidation during synthesis and purification. The Trp based assay utilized a peptide having an amino acid residues as follows: Ac-R-H-K-K(Ac)-W-NH2 (SEQ ID NO: 2).
The Trp mass spectrometry assay was conducted as follows. 0.5 μM peptide substrate and 120 μM βNAD^+ were incubated with 10 nM SIRT1 for 25 minutes at 25° C. in a reaction buffer (50 mM HEPES pH 7.5, […], 1 mM DTT, 0.05% BSA). The SIRT1 protein was obtained by cloning the SirT1 gene into a T7-promoter containing vector, which was then expressed in BL21(DE3) bacterial cells and purified as described in further detail below. Test compound was added at varying concentrations to this reaction mixture and the resulting reactions were monitored. After the 25 minute incubation with SIRT1, 10 μL of 10% formic acid was added to stop the reaction. The resulting reactions were sealed and frozen for later mass spec analysis. The relative SIRT1 activity was then determined by measuring the amount of O-acetyl-ADP-ribose (OAADPR) formed (or, alternatively, the amount of deacetylated Trp peptide generated) by the NAD-dependent sirtuin deacetylation reaction in the presence of varying concentrations of the test compound versus control reactions lacking the test compound. The degree to which the test agent activated deacetylation by SIRT1 was expressed as EC1.5 (i.e., the concentration of compound required to increase SIRT1 activity by 50% over the control lacking test compound), and Percent Maximum Activation (i.e., the maximum activity relative to control (100%) obtained for the test compound).
This time point was the same as that used for test compounds and, within the linear range, the endpoint represents a change in velocity.
For the above assay, SIRT1 protein was expressed and purified as follows. The SirT1 gene was cloned into a T7-promoter containing vector and transformed into BL21(DE3). The protein was expressed by induction with 1 mM IPTG as an N-terminal His-tag fusion protein at 18° C. overnight and harvested at 30,000×g. Cells were lysed with lysozyme in lysis buffer (50 mM Tris-HCl, 2 mM Tris[2-carboxyethyl]phosphine (TCEP), 10 μM ZnCl2, 200 mM NaCl) and further treated with sonication for 10 min for complete lysis. The protein was purified over a Ni-NTA column (Amersham) and fractions containing pure protein were pooled, concentrated and run over a sizing column (Sephadex S200 26/60 global). The peak containing soluble protein was collected and run on an Ion-exchange column (MonoQ). Gradient elution (200 mM-500 mM NaCl) yielded pure protein. This protein was concentrated and dialyzed against dialysis buffer (20 mM Tris-HCl, 2 mM TCEP) overnight. The protein was aliquoted and frozen at −80° C. until further use.
“NT” means not tested; “ND” means not determinable.

Setting [1] is: Trp peptide assay, maximum activity relative to control (100%).

Take `Cc1cc(-c2ccc3c(n2)N(C(=O)Nc2nccc(C)n2)[C@H]2CCN3C2)ccn1` [(9S)-5-(2-methylpyridin-4-yl)-N-(4-methylpyrimidin-2-yl)-1,6,8-triazatricyclo[7.2.1.0^{2,7}]dodeca-2,4,6-triene-8-carboxamide]: the “TRP Activity (EC1.5)” value (Trp peptide assay) is on record as “B (B (EC1.5 1-25 μM))”. Moreover, the Emax under setting [1] is greater than 150%.
Turning to `Cc1cc(-c2ccc3c(n2)N(C(=O)Nc2ncnc4[nH]cnc24)[C@H]2CCN3C2)ccn1` [(9S)-5-(2-methylpyridin-4-yl)-N-(9H-purin-6-yl)-1,6,8-triazatricyclo[7.2.1.0^{2,7}]dodeca-2,4,6-triene-8-carboxamide], the Emax was greater than 150%. The “TRP Activity (EC1.5)” value (Trp peptide assay) is recorded as “B (B (EC1.5 1-25 μM))”.
As for `Cc1cc(-c2ccc3c(n2)N(C(=O)Nc2cnccn2)[C@H]2CCCN3C2)ccn1` [(9S)-5-(2-methylpyridin-4-yl)-N-(pyrazin-2-yl)-1,6,8-triazatricyclo[7.3.1.0 {2,7}]trideca-2(7),3,5-triene-8-carboxamide], the “TRP Activity (EC1.5)” value (Trp peptide assay) was “A (A (EC1.5<1 μM))”. Further, under setting [1], the Emax was greater than 150%.
Turning to `Cc1cc(-c2ccc3c(n2)N(C(=O)Nc2cccnn2)[C@H]2CCN3C2)ccn1` [(9S)-5-(2-methylpyridin-4-yl)-N-(pyridazin-3-yl)-1,6,8-triazatricyclo[7.2.1.0 {2,7}]dodeca-2(7),3,5-triene-8-carboxamide], for the setting “Trp peptide assay”, the “TRP Activity (EC1.5)” value is recorded as “B (B (EC1.5 1-25 μM))”. In addition, the Emax under setting [1] was greater than 150%.
For `Cc1cc(-c2ccc3c(n2)N(C(=O)Nc2cccnn2)[C@H]2CCCN3C2)ccn1` [(9S)-5-(2-methylpyridin-4-yl)-N-(pyridazin-3-yl)-1,6,8-triazatricyclo[7.3.1.0 {2,7}]trideca-2(7),3,5-triene-8-carboxamide] the same measures were “A (A (EC1.5<1 μM))” and greater than 150%.
Consider `Cc1cc(-c2ccc3c(n2)N(C(=O)Nc2ccnnc2)[C@H]2CCN3C2)ccn1` [(9S)-5-(2-methylpyridin-4-yl)-N-(pyridazin-4-yl)-1,6,8-triazatricyclo[7.2.1.0^{2,7}]dodeca-2,4,6-triene-8-carboxamide], for which the “TRP Activity (EC1.5)” value (Trp peptide assay) was “B (B (EC1.5 1-25 μM))”. The Emax under setting [1] was greater than 150%.
In the case of `Cc1cc(-c2ccc3c(n2)N(C(=O)Nc2ccccn2)[C@H]2CCCN3C2)ccn1` [(9S)-5-(2-methylpyridin-4-yl)-N-(pyridin-2-yl)-1,6,8-triazatricyclo[7.3.1.0 {2,7}]trideca-2(7),3,5-triene-8-carboxamide], under “Trp peptide assay”, the “TRP Activity (EC1.5)” value is given as “A (A (EC1.5<1 μM))”. Besides, the Emax under setting [1] was greater than 150%.
Turning to `Cc1cc(-c2ccc3c(n2)N(C(=O)NCc2cccnc2)[C@H]2CCN3C2)ccn1` [(9S)-5-(2-methylpyridin-4-yl)-N-(pyridin-3-ylmethyl)-1,6,8-triazatricyclo[7.2.1.0 {2,7}]dodeca-2(7),3,5-triene-8-carboxamide], the “TRP Activity (EC1.5)” value (Trp peptide assay) is reported as “B (B (EC1.5 1-25 μM))”. For the same compound, the Emax under setting [1] is greater than 150%.
For the compound `Cc1cc(-c2ccc3c(n2)N(C(=O)Nc2ccncn2)[C@H]2CCCN3C2)ccn1` [(9S)-5-(2-methylpyridin-4-yl)-N-(pyrimidin-4-yl)-1,6,8-triazatricyclo[7.3.1.0 {2,7}]trideca-2(7),3,5-triene-8-carboxamide], the “TRP Activity (EC1.5)” value (Trp peptide assay) is given as “A (A (EC1.5<1 μM))”. The Emax under setting [1] was greater than 150%.
The corresponding values for `Cc1cc(-c2ccc3c(n2)N(C(=O)Nc2cncnc2)[C@H]2CCN3C2)ccn1` [(9S)-5-(2-methylpyridin-4-yl)-N-(pyrimidin-5-yl)-1,6,8-triazatricyclo[7.2.1.0 {2,7}]dodeca-2(7),3,5-triene-8-carboxamide] are “C (C (EC1.5>25 μM))” and greater than 150%.
Consider `Cc1cc(-c2ccc3c(n2)N(C(=O)Nc2cncnc2)[C@H]2CCCN3C2)ccn1` [(9S)-5-(2-methylpyridin-4-yl)-N-(pyrimidin-5-yl)-1,6,8-triazatricyclo[7.3.1.0 {2,7}]trideca-2(7),3,5-triene-8-carboxamide], for which the “TRP Activity (EC1.5)” value (Trp peptide assay) is listed as “B (B (EC1.5 1-25 μM))”. Moreover, the Emax under setting [1] was greater than 150%.
For `Cc1cc(-c2ccc3c(n2)N(C(=O)Nc2cccc4nccnc24)[C@H]2CCN3C2)ccn1` [(9S)-5-(2-methylpyridin-4-yl)-N-(quinoxalin-5-yl)-1,6,8-triazatricyclo[7.2.1.0 {2,7}]dodeca-2,4,6-triene-8-carboxamide] the same measures were “A (A (EC1.5<1 μM))” and greater than 150%.
For `Cc1cc(-c2ccc3c(n2)N(C(=O)NCCc2ccccn2)[C@H]2CCN3C2)ccn1` [(9S)-5-(2-methylpyridin-4-yl)-N-[2-(pyridin-2-yl)ethyl]-1,6,8-triazatricyclo[7.2.1.0 {2,7}]dodeca-2(7),3,5-triene-8-carboxamide hydrochloride] the same measures were “C (C (EC1.5>25 μM))” and less than 150%.
For `Cc1cc(-c2ccc3c(n2)N(C(=O)NCCc2cccnc2)[C@H]2CCN3C2)ccn1` [(9S)-5-(2-methylpyridin-4-yl)-N-[2-(pyridin-3-yl)ethyl]-1,6,8-triazatricyclo[7.2.1.0 {2,7}]dodeca-2(7),3,5-triene-8-carboxamide hydrochloride] the same measures were “C (C (EC1.5>25 μM))” and less than 150%.
On to `Cc1cc(-c2ccc3c(n2)N(C(=O)Nc2cnc(C(F)(F)F)cn2)[C@H]2CCN3C2)ccn1` [(9S)-5-(2-methylpyridin-4-yl)-N-[5-(trifluoromethyl)pyrazin-2-yl]-1,6,8-triazatricyclo[7.2.1.0 {2,7}]dodeca-2(7),3,5-triene-8-carboxamide], for which the “TRP Activity (EC1.5)” value (Trp peptide assay) is “C (C (EC1.5>25 μM))”. The Emax under setting [1] is less than 150%.
Regarding `Cc1cc(-c2ccc3c(n2)N(C(=O)Nc2cncc(C(C)C)n2)[C@H]2CCN3C2)ccn1` [(9S)-5-(2-methylpyridin-4-yl)-N-[6-(propan-2-yl)pyrazin-2-yl]-1,6,8-triazatricyclo[7.2.1.0^2,7]dodeca-2(7),3,5-triene-8-carboxamide], the “TRP Activity (EC1.5)” value (Trp peptide assay) was “A (A (EC1.5<1 μM))”. Also, the Emax under setting [1] is greater than 150%.
Regarding `Cc1cc(-c2ccc3c(n2)N(C(=O)Nc2cncc(OC(C)C)n2)[C@H]2CCN3C2)ccn1` [(9S)-5-(2-methylpyridin-4-yl)-N-[6-(propan-2-yloxy)pyrazin-2-yl]-1,6,8-triazatricyclo[7.2.1.0 {2,7}]dodeca-2(7),3,5-triene-8-carboxamide], where the note is “Trp peptide assay”, the “TRP Activity (EC1.5)” value is “A (A (EC1.5<1 μM))”. Also, the Emax under setting [1] is greater than 150%.
For `Cc1cc(-c2ccc3c(n2)N(C(=O)N[C@H](C)c2ccccn2)[C@H]2CCN3C2)ccn1` [(9S)-5-(2-methylpyridin-4-yl)-N-[(1R)-1-(pyridin-2-yl)ethyl]-1,6,8-triazatricyclo[7.2.1.0 {2,7}]dodeca-2,4,6-triene-8-carboxamide] the same measures were “C (C (EC1.5>25 μM))” and less than 150%.
